This note sets out measurements from ChEMBL document CHEMBL1150556, “Tetraazaacenaphthene, tetraazaphenalene and 1,3,4-thiadiazole derivatives as potential leishmanicides” (1997).

The test system of assay [1] is Leishmania donovani. Nature of the assay: In vivo leishmanicidal activity determined against amastigotes of Leishmania donovani in golden hamsters. To be noted: Mesocricetus auratus; dose or concentration not given here.
Assay [2] has as its system Leishmania donovani. Nature of the assay: In vitro leishmanicidal activity determined by measuring 3H thymidine incorporation in promastigotes of Leishmania donovani. The format is functional. Further details: concentration or dose not given beside the values.
Assay [3] is described as follows: In vivo leishmanicidal activity determined against amastigotes of Leishmania donovani in golden hamsters. The format is functional, Mesocricetus auratus. Further details: concentration or dose not given beside the values.
The test system of a further assay is Cricetulus griseus. Kind of assay: TThe in vivo leishmanicidal activity of compound was determined against amastigotes of Leishmania donovani in golden hamsters (Mesocricetus auratus) at dose of 50 mg/kg for 5 days; Toxic. It is filed as functional, organism-based. Further details: dose 50 mg/kg.
Assay [4] deals with Leishmania donovani. Nature of the assay: In vitro leishmanicidal activity of compound was determined by measuring 3H thymidine incorporation in promastigotes of Leishmania donovani at concentration of 100 uM. The format is functional.

The inhibition is how much of the control response was suppressed. Sodium stibogluconate gave an inhibition in the assay with Leishmania donovani [1] of 100%.
In general, Inhibition refers to the share of the control response that was lost under treatment. `O=c1c2c(=O)n(-c3ccccc3)c(=S)n3c2n(c(=S)n1-c1ccccc1)CC3`: the Inhibition with Leishmania donovani [2] worked out at 85%; in assay [3] it was 81.3%.
With `N=c1c2c(=O)n(-c3ccc(F)cc3)c(=S)n3c2n(c(=S)n1-c1ccc(F)cc1)CC3`, the Inhibition in the assay on Leishmania donovani [2] is reported as 99.3%. Further, the inhibition entry in the assay on Cricetulus griseus was “Toxic”.
As for `Cc1ccccc1-n1c(=N)c2c(=O)n(-c3ccccc3C)c(=O)n3c2n(c1=O)CC3`, the Inhibition with Leishmania donovani [2] was determined as 7%.
`Cc1ccccc1-n1c(=O)c2c(=O)n(-c3ccccc3C)c(=O)n3c2n(c1=O)CC3`: the values for the Inhibition (in the assay with Leishmania donovani [2]; in assay [3]) were 93% and 0%, respectively.
In the same order, the values of `CCO/C(O)=C(\C1=NCCN1)c1nn2cc(-c3ccc(Cl)cc3)nc2s1` are 40% and 0%.
`N#CC(=C1SCCS1)c1nnc(N)s1` had an Inhibition in the assay with Leishmania donovani [2] of 18%.
On to `CCO/C(O)=C(\C1=NCCN1)c1nnc(N)s1`, for which, in the assay with Leishmania donovani [2], the Inhibition came to 0%.
With `N=c1c2c(=O)n(-c3ccccc3)c(=S)n3c2n(c(=S)n1-c1ccccc1)CC3`, the figures for the Inhibition (in the assay on Leishmania donovani [2]; in assay [3]) were 99.3% and 78.6%, respectively.
With `CCn1c(=O)c2c(=O)n(CC)c(=O)n3c2n(c1=O)CCC3`, the Inhibition in the assay on Leishmania donovani [2] is reported as 58%; in assay [3], 0%.
Take `CCO/C(O)=C(\C1=NCCCN1)c1nnc(N)s1`: the Inhibition in the assay on Leishmania donovani [2] was 73%; in assay [3], 44.7%.
In the same order, the values of `CCO/C(O)=C(\C1=NCCN1)c1nn2cc(-c3ccc(Br)cc3)nc2s1` are 31% and 0%.
The molecule `CCn1c(=O)c2c(=O)n(CC)c(=S)n3c2n(c1=S)CC3` had an Inhibition in the assay on Leishmania donovani [2] of 76%.
In the case of `CCn1c(=N)c2c(=O)n(CC)c(=S)n3c2n(c1=S)CCC3`, the Inhibition in the assay with Leishmania donovani [2] was found to be 99.2%; in assay [3], 50.7%.
In turn, `CCOC(=O)C(=C1SCCS1)c1nnc(N)s1` displayed an Inhibition in the assay on Leishmania donovani [2] of 0%.
Turning to `CCOC(=O)C(=C1SCCCS1)c1nnc(N)s1`, the Inhibition with Leishmania donovani [2] is listed as 0%.
For the molecule `O=c1c2c(=O)n(-c3ccc(F)cc3)c(=S)n3c2n(c(=S)n1-c1ccc(F)cc1)CC3`, the values for the Inhibition (in the assay on Leishmania donovani [2]; in assay [3]) were 50% and 0%, respectively.
For `CCn1c(=N)c2c(=O)n(CC)c(=S)n3c2n(c1=S)CC3`, in that order: 20% and 71.2%.
Take `N=C(N)c1ccc(OCCCCCOc2ccc(C(=N)N)cc2)cc1` [PENTAMIDINE]: the inhibition at 100 µM in the assay on Leishmania donovani [4] was 100%.
